Reference: ChEMBL document CHEMBL4823314, “Design, synthesis and biological evaluation of novel acridine and quinoline derivatives as tubulin polymerization inhibitors with anticancer activities” (Bioorg Med Chem, 2021)

What was measured:
[1] = test system: MCF7; assay: cells; conditions: Homo sapiens, MCF7, 48 h
Description: Antiproliferative activity against human MCF7 cells assessed as reduction in cell viability measured after 48 hrs by MTT assay

[2] = test system: HeLa; assay: cells; conditions: Homo sapiens, 48 h
Description: Antiproliferative activity against human HeLa cells assessed as reduction in cell viability measured after 48 hrs by MTT assay

[3] = test system: B16-F10; assay: Antiproliferative activity against mouse B16-F10 cells assessed as reduction in cell viability measured after 48 hrs by MTT assay; format: functional, cell-based; conditions: B16-F10, 48 h
[4] = test system: HepG2; assay: Antiproliferative activity against human HepG2 cells assessed as reduction in cell viability measured after 48 hrs by MTT assay; format: functional, cell-based; conditions: HepG2, 48 h
[5] = Inhibition of pig brain tubulin polymerization by spectrophotometric method; format: tissue-based, Sus scrofa

## CCCCN(c1cc(OC)c(OC)c(OC)c1)c1cccc2ncccc12
[1]
  IC50: 8.33 µM
[2]
  IC50: 9.29 µM
[3]
  IC50: 7.65 µM
[4]
  IC50: 7 µM

## COc1ccc(N(C)c2ccnc(C)c2)cc1
[1]
  IC50: 13.3 µM
[2]
  IC50: 18.7 µM
[3]
  IC50: 15.4 µM
[4]
  IC50: 15.5 µM

## CCCCN(c1ccc(F)c(Cl)c1)c1cccc2ncccc12
[1]
  IC50: 33.8 µM
[2]
  IC50: 32.1 µM
[3]
  IC50: 29.5 µM
[4]
  IC50: 26.7 µM

## COc1ccc(N(C)c2c3ccc(Cl)cc3nc3ccc(OC)cc23)cc1
[1]
  IC50: 7.77 µM
[2]
  IC50: 8.95 µM
[3]
  IC50: 8.05 µM
[4]
  IC50: 7.24 µM

## COc1cc(Nc2c3ccccc3nc3ccccc23)cc(OC)c1OC
[1]
  IC50: 5.67 µM
[2]
  IC50: 6.8 µM
[3]
  IC50: 6.54 µM
[4]
  IC50: 4.46 µM

## COc1ccc(Nc2ccnc3cc(Cl)ccc23)cc1
[1]
  IC50: 9.69 µM
[2]
  IC50: 8.79 µM
[3]
  IC50: 8.32 µM
[4]
  IC50: 6.98 µM

## N#Cc1ccc(Nc2cccc3ncccc23)cc1
[1]
  IC50: 35.6 µM
[2]
  IC50: 43.2 µM
[3]
  IC50: 40.4 µM
[4]
  IC50: 37.5 µM

## CN(c1ccc(C#N)cc1)c1cccc2ncccc12
[1]
  IC50: 30.9 µM
[2]
  IC50: 36.5 µM
[3]
  IC50: 25.2 µM
[4]
  IC50: 28.7 µM

## CCCCN(c1ccc(OC)cc1)c1c2ccccc2nc2ccccc12
[1]
  IC50: 7.11 µM
[2]
  IC50: 8.65 µM
[3]
  IC50: 6.45 µM
[4]
  IC50: 3.44 µM

## COc1cc(Nc2ccnc3cc(Cl)ccc23)cc(OC)c1OC
[1]
  IC50: 9.27 µM
[2]
  IC50: 8.65 µM
[3]
  IC50: 7.22 µM
[4]
  IC50: 6.82 µM

## CCCCN(c1ccc(C#N)cc1)c1cccc2ncccc12
[1]
  IC50: 29.7 µM
[2]
  IC50: 42.9 µM
[3]
  IC50: 33.1 µM
[4]
  IC50: 30.1 µM

## COc1ccc(/C=C\c2cc(OC)c(OC)c(OC)c2)cc1O [COMBRETASTATIN A4]
[1]
  IC50: 0.019 µM
[2]
  IC50: 0.023 µM
[3]
  IC50: 0.014 µM
[5]
  IC50: 1.84 µM

## COc1ccc(Nc2cccc3ncccc23)cc1
[1]
  IC50: 4.64 µM
[2]
  IC50: 4.16 µM
[3]
  IC50: 4.57 µM
[4]
  IC50: 3.79 µM

## COc1cc(N(C)c2c3ccccc3nc3ccccc23)cc(OC)c1OC
[1]
  IC50: 2.03 µM
[2]
  IC50: 2.7 µM
[3]
  IC50: 1.39 µM
[4]
  IC50: 1.81 µM

## COc1cc(N(C)c2ccnc3cc(Cl)ccc23)cc(OC)c1OC
[1]
  IC50: 14.3 µM
[2]
  IC50: 16.1 µM
[3]
  IC50: 13.3 µM
[4]
  IC50: 11.4 µM

## CN(c1ccccc1)c1cccc2ncccc12
[1]
  IC50: 20.4 µM
[2]
  IC50: 24 µM
[3]
  IC50: 18.1 µM
[4]
  IC50: 16 µM

## COc1ccc(N(C)c2ccnc3cc(Cl)ccc23)cc1
[1]
  IC50: 4.42 µM
[2]
  IC50: 2.67 µM
[3]
  IC50: 1.38 µM
[4]
  IC50: 0.939 µM

## COc1ccc(Nc2c3ccccc3nc3ccccc23)cc1
[1]
  IC50: 1.23 µM
[2]
  IC50: 3.67 µM
[3]
  IC50: 2.14 µM
[4]
  IC50: 1.47 µM

## COc1ccc(N(C)c2ccnc(C)n2)cc1
[1]
  IC50: 5.32 µM
[2]
  IC50: 6.12 µM
[3]
  IC50: 4.06 µM
[4]
  IC50: 1.4 µM

## COc1cc(Nc2cccc3ncccc23)cc(OC)c1OC
[1]
  IC50: 1.14 µM
[2]
  IC50: 2.8 µM
[3]
  IC50: 1.28 µM
[4]
  IC50: 0.783 µM

## CCCCN(c1ccc(OC)cc1)c1ccnc2cc(Cl)ccc12
[1]
  IC50: 7.12 µM
[2]
  IC50: 6.47 µM
[3]
  IC50: 6.84 µM
[4]
  IC50: 5.69 µM

## COc1ccc(Nc2c3ccc(Cl)cc3nc3ccc(OC)cc23)cc1
[1]
  IC50: 5.17 µM
[2]
  IC50: 7.2 µM
[3]
  IC50: 4.98 µM
[4]
  IC50: 3.19 µM

## CCCCN(c1ccc(OC)cc1)c1ccnc(C)n1
[1]
  IC50: 9.38 µM
[2]
  IC50: 8.61 µM
[3]
  IC50: 9.06 µM
[4]
  IC50: 6.71 µM

## CCCCN(c1ccccc1)c1cccc2ncccc12
[1]
  IC50: 20 µM
[2]
  IC50: 29.9 µM
[3]
  IC50: 27.1 µM
[4]
  IC50: 22.1 µM

## Fc1ccc(Nc2cccc3ncccc23)cc1Cl
[1]
  IC50: 36.4 µM
[2]
  IC50: 44.9 µM
[3]
  IC50: 38.1 µM
[4]
  IC50: 32.1 µM

## CCCCN(c1cc(OC)c(OC)c(OC)c1)c1c2ccc(Cl)cc2nc2ccc(OC)cc12
[1]
  IC50: 4.86 µM
[2]
  IC50: 6.08 µM
[3]
  IC50: 4.66 µM
[4]
  IC50: 3.5 µM

## CN(c1ccc(F)c(Cl)c1)c1cccc2ncccc12
[1]
  IC50: 23.6 µM
[2]
  IC50: 30.9 µM
[3]
  IC50: 25.5 µM
[4]
  IC50: 20.1 µM

## COc1cc(Nc2ccnc(C)c2)cc(OC)c1OC
[1]
  IC50: 13.3 µM
[2]
  IC50: 16.1 µM
[3]
  IC50: 18.9 µM
[4]
  IC50: 11.4 µM

## COc1ccc(Nc2ccnc(C)c2)cc1
[1]
  IC50: 21.1 µM
[2]
  IC50: 21 µM
[3]
  IC50: 16.6 µM
[4]
  IC50: 14.8 µM

## CCCCN(c1cc(OC)c(OC)c(OC)c1)c1ccnc2cc(Cl)ccc12
[1]
  IC50: 16.4 µM
[2]
  IC50: 17.3 µM
[3]
  IC50: 14.7 µM
[4]
  IC50: 15.4 µM

## c1ccc(Nc2cccc3ncccc23)cc1
[1]
  IC50: 26.4 µM
[2]
  IC50: 30.7 µM
[3]
  IC50: 28.6 µM
[4]
  IC50: 26.8 µM

## COc1ccc(Nc2ccnc(C)n2)cc1
[1]
  IC50: 12.5 µM
[2]
  IC50: 13.6 µM
[3]
  IC50: 10.6 µM
[4]
  IC50: 6.78 µM

## CCCCN(c1cc(OC)c(OC)c(OC)c1)c1ccnc(C)n1
[1]
  IC50: 20.2 µM
[2]
  IC50: 17 µM
[3]
  IC50: 19.3 µM
[4]
  IC50: 16.8 µM

## COc1cc(N(C)c2ccnc(C)n2)cc(OC)c1OC
[1]
  IC50: 14.5 µM
[2]
  IC50: 16.2 µM
[3]
  IC50: 15.4 µM
[4]
  IC50: 12.7 µM

## COc1ccc2nc3cc(Cl)ccc3c(N(C)c3cc(OC)c(OC)c(OC)c3)c2c1
[1]
  IC50: 3.13 µM
[2]
  IC50: 4.01 µM
[3]
  IC50: 3.79 µM
[4]
  IC50: 2.83 µM

## COc1ccc2nc3cc(Cl)ccc3c(Nc3cc(OC)c(OC)c(OC)c3)c2c1
[1]
  IC50: 6.6 µM
[2]
  IC50: 8.07 µM
[3]
  IC50: 6.97 µM
[4]
  IC50: 5.23 µM

## COc1cc(N(C)c2cccc3ncccc23)cc(OC)c1OC
[1]
  IC50: 6.36 µM
[2]
  IC50: 8.27 µM
[3]
  IC50: 6.58 µM
[4]
  IC50: 5.24 µM

## CCCCN(c1ccnc(C)c1)c1cc(OC)c(OC)c(OC)c1
[1]
  IC50: 17.3 µM
[2]
  IC50: 16.8 µM
[3]
  IC50: 18.4 µM
[4]
  IC50: 15.6 µM

## CCCCN(c1ccc(OC)cc1)c1c2ccc(Cl)cc2nc2ccc(OC)cc12
[1]
  IC50: 9.06 µM
[2]
  IC50: 9.82 µM
[3]
  IC50: 9.04 µM
[4]
  IC50: 8.16 µM

## CCCCN(c1cc(OC)c(OC)c(OC)c1)c1c2ccccc2nc2ccccc12
[1]
  IC50: 4.44 µM
[2]
  IC50: 5.3 µM
[3]
  IC50: 4.68 µM
[4]
  IC50: 3.55 µM

## COc1cc(Nc2ccnc(C)n2)cc(OC)c1OC
[1]
  IC50: 11.5 µM
[2]
  IC50: 10.6 µM
[3]
  IC50: 10 µM
[4]
  IC50: 8.18 µM

## COc1cc(N(C)c2ccnc(C)c2)cc(OC)c1OC
[1]
  IC50: 15.3 µM
[2]
  IC50: 14.1 µM
[3]
  IC50: 22.5 µM
[4]
  IC50: 18.6 µM

## CCCCN(c1ccc(OC)cc1)c1ccnc(C)c1
[1]
  IC50: 22.5 µM
[2]
  IC50: 19.7 µM
[3]
  IC50: 20.2 µM
[4]
  IC50: 18.7 µM

## COc1ccc(N(C)c2c3ccccc3nc3ccccc23)cc1
[1]
  IC50: 5.17 µM
[2]
  IC50: 6.49 µM
[3]
  IC50: 5.78 µM
[4]
  IC50: 4.18 µM

## CCCCN(c1ccc(OC)cc1)c1cccc2ncccc12
[1]
  IC50: 3.78 µM
[2]
  IC50: 3.06 µM
[3]
  IC50: 2.43 µM
[4]
  IC50: 1.37 µM
